#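 Interpolation was linear, between the two tested concentrations surrounding the appropriate level; five concentrations were tested over 48 hours in 96-well plates. TGI marks complete inhibition of growth.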
# What was measured:
# Assay in all cases: inhibition of tumour cell growth, NCI panel, 48 h
# HOP-92 NSCLC = test system: HOP-92 NSCLC
# COLO 205 colon = test system: COLO 205 colon
# SNB-75 CNS = test system: SNB-75 CNS
# NCI-H522 lung = test system: NCI-H522 lung
# T-47D breast = test system: T-47D breast
# CCRF-CEM leukemia = test system: CCRF-CEM leukemia
# DU-145 prostate = test system: DU-145 prostate
# 786-0 renal = test system: 786-0 renal
# SNB-19 CNS = test system: SNB-19 CNS
# NCI-H23 lung = test system: NCI-H23 lung
Compound,TGI (HOP-92 NSCLC) [µM],TGI (COLO 205 colon) [µM],TGI (SNB-75 CNS) [µM],TGI (NCI-H522 lung) [µM],TGI (T-47D breast) [µM],TGI (CCRF-CEM leukemia) [µM],TGI (DU-145 prostate) [µM],TGI (786-0 renal) [µM],TGI (SNB-19 CNS) [µM],TGI (NCI-H23 lung) [µM]
Nc1ncc(Cc2nn3c(COc4ccc(Cl)cc4)nnc3s2)s1,> 100,> 100,> 100,> 100,> 100,> 100,> 100,> 100,> 100,> 100
Cc1nc2ccccc2n1CCc1nc2ccccc2[nH]1,> 100,> 100,> 100,> 100,> 100,> 100,> 100,> 100,> 100,> 100
CN(CCc1ccccn1)C(=S)N/N=C/c1ccccn1,3.66,0.727,> 100,0.29,22.2,< 0.01,> 100,> 38.8,> 100,13.8
C[C@@H](CC(O)C(O)C(C)(C)O)C1CCC23CC12CCC1[C@@]2(C)CCC(=O)C(C)(C)C2CC(OC2OC(CO)C(O)C(O)C2O)[C@]13C (stereo not given in full),> 10,> 10,> 10,> 10,> 10,> 10,> 10,> 10,> 10,> 10
Cn1c(=O)c2[nH]cnc2n(C)c1=O,> 100,> 100,,> 100,> 100,> 100,> 100,> 100,,> 100
NC(=O)Nc1n[nH]c(-c2ccccc2)n1,,> 100,> 100,> 100,> 100,> 100,> 100,> 100,> 100,> 100
Cc1cccc(/C=N/NC(=S)NC(C)(C)C)n1,,> 100,> 100,> 100,> 100,> 100,> 100,> 100,> 100,> 100
CC[N+]1(C)CCC(O)(/C=C/c2ccc(Cl)c(Cl)c2)C(C(=O)/C=C/c2ccc(Cl)c(Cl)c2)C1 (stereo not given),7.82,10.2,12.2,3.34,4.87,,6.87,3.46,17.3,7.03
C=C1C(=O)O[C@H]2[C@@H](O)[C@H](C)CCC/C(C)=C/CC[C@@]3(C)O[C@@H]3C[C@@H]12,8.04,12.3,29.6,8.28,12.3,11.7,19.1,14.9,37.5,21.8
COC(=O)[C@]12CCC(=O)N1[C@H](C(=O)O)Cc1c2[nH]c2ccccc12,> 100,> 100,> 100,> 100,> 100,> 100,> 100,> 100,> 100,> 100
CCOc1cc(C=Nc2ccc(Oc3ccc(Cl)cc3)c(Cl)c2)ccc1O,39.6,44.6,45.7,31.9,> 100,50.8,> 100,34,62.1,45.6

# — PubChem BioAssay (NCI)
